Experimental data reported in paper PMC11475408, “All‐Inorganic Polyoxometalates Act as Superchaotropic Membrane Carriers” (Advanced Materials (Deerfield Beach, Fla.), 2023).

Key:
[1] = system: CHO‐K1 cells; experiment: Cellular viability, resazurin assay; format: cell-based, Chinese hamster; conditions: CHO-K1, up to 10 µM carrier, 24 h, n = 3
Description: For cell viability assay in thepresence of activators, CHO‐K1 cells were incubated in Ham's F‐12 medium containing 10% fetal bovine serum and 1.0% penicillin streptomycin at 37 °C in a 5% CO2 for 24 h. CHO‐K1 cells were dispersed in a 96‐well flat bottom tissue culture treated plates (Eppendorf) at density of 5 × 10^3 cells per well (per 100 µL) and incubated in Ham's F‐12 containing 10% v/v fetal bovine serum at 37 °C in a 5% CO2 incubator for 12 h to allow cell adhesion. Then, cells were incubated with POM, B12Br12 ^2−, or PyBu (10, 50, and 100 µM) for another 24 h. After this incubation time, 20 µL resazurin solution (0.15 mg mL^−1) was added to cells and incubated for another 3 h. Finally, the plates were read at λ em = 590 nm (λ ex = 560 nm) using a JASCO fluorometer FP‐8500. The cell viability was evaluated by the following equation (4) Cellviability=FIsample−FIblank/FIcontrol−FIblank×100% where, FI sample is the fluorescence intensity of cells incubated with different compounds, FI blank is the fluorescence intensity of medium, and FI control is the fluorescence intensity of cells in absence of any compound.
6. Transport in cellular membranes
Figure S13. Viability of CHO-K1cells (resazurin assay) incubated with different carrier concentrations (0, 10, 50, and 100 µM) for 24 hours. Error bars refer to standard deviation (n = 3).
Figure S14. […]

[2] = system: heptalysine; experiment: ITC, POM into heptalysine; format: binding; conditions: 10 mM Tris, pH 7.4, value is Ka divided by 10^7
Description: All experiments were performed with a VP‐ITC MicroCalorimeter from MicroCal, Int,. at atmospheric pressure and 298.15 K. Solutions were degassed and thermostatic prior to the titration experiments in a ThermoVac accessory. A constant volume of POM ([PVW11]^4‒ or [SiMoW11]^4‒) (10 µL per injection) was injected into the oligopeptide solution (heptaArg, protamine, polyArg or heptaLys) in 10 mM Tris, pH 7.4 to determine the apparent binding affinity of [PVW11]^4‒ and [SiMoW11]^4‒ with the oligopeptides. Dilution heats were determined by titration of the POM into buffer and subtracted from the reaction heat. The neat reaction heat was fitted with Origin 7.0 software by using the “one‐set‐of‐sites” model to obtain the complex stability constant (K a) and molar reaction enthalpy (∆H°). The free energy (∆G°) and entropy changes (∆S°) were obtained according to the relation: ∆G° = −RTlnK a = ∆H°−T∆S°.
Figure S11. Microcalorimetric titrations in 10 mM Tris, pH 7.4: Raw ITC data (top) for the sequential injections of POM solution into a heptalysine solution, and apparent reaction heats (bottom) obtained from the integration of the calorimetric traces. POM/heptalysine concentrations in µM: a, 200/8 and b, 150/10. Error data is 5% for the n values and ± 0.5 kcal mol‒1 for ΔH and TΔS (duplicate […]
Table S6. […]

Substance | Cell viability [1] | Ka/ 107, heptalysine [2]
K4[α‐Si^IVMo^VIW^VI 11O40]·24H2O [[SiMoW11]^4‒] | about 80% | 4.1 M‒1
K4[α‐P^VV^VW^VI 11O40]·4H2O [[PVW11]^4‒] | about 80% | 2.8 M‒1
